Read-outs that look alike come from different tables or passages of the source.
Experiments:
[1] = target: T1, CYP2D6 (Homo sapiens, UniProt P10635); experiment: In vitro study for inhibiting cytochrome P450 (CYP) 2D6 using human liver microsomes; type: in vitro ADME; conditions: human liver microsomes 0.1 mg/ml, probe substrate dextromethorphan 4 μM, 30 min at 37° C.; read-out: IC50 of inhibition on CYP2D6
T1 construct: tissue Corning Co, LTD; host or cells: human liver microsomes
Method: Potassium phosphate buffer ([…] from Sangon Biotech. Dilute 20×PBS to 100 mM PBS buffer. The stock solutions of NADPH was 5 mM and the final concentration in the incubation system was 1 mM. The stock solution of MgCl2 were 7.5 mM and t the final concentration in the incubation system was 3 mM.
1.1 Preparation of probe substrate solution: The stock solutions of probe substrates of dextromethorphan (Sigma Cat No. D9684) was prepared by using DMSO and the final concentration in incubation system was 4 μM.
1.2 Preparation of selective inhibitors solution: The 30 mM stock solutions of inhibitor of CYP isoforms of Quinidine (Sigma, Q0750) was prepared by using DMSO and the final concentration in incubation system were 30, 10, 3, 1, 0.3, 0.03, 0.003 μM.
1.3 Preparation of test compound 5 and 6 solution: The 30 mM test compound 5 and 6 solutions were prepared by using DMSO and the final concentration in incubation system were 30, 10, 3, 1, 0.3, 0.03, 0.003 μM.
1.4 Human liver microsomes (HLM) were purchased by Corning Co, LTD. Diluted the HLM into 0.25 mg/ml and the final concentration was 0.1 mg/ml.
Added 20 μL working solutions of test compound 5 or 6 or selective inhibitors into a 96-well plate. Then added 40 μL of the HLM working solution and 20 μL of the substrate working solution. […] Samples are now ready for LC/MS/MS analysis.

[2] = target: T2, full length human IRAK4 protein (Homo sapiens, UniProt Q9NWZ3); experiment: IRAK4 Biochemical Assay (Promega ADP-Glo IRAK4 Kinase Enzyme System); conditions: 3 nM enzyme, 250 μM ATP; for IC50: 2 μM MBP, 60 min at room temperature; for IRAK4 Biochemical Assay Max Inhibition (%): maximum inhibition
T2 construct: Purified full length human IRAK4 protein; purchased Signal Chem I12-10G-125
T2 sequence (Q9NWZ3 1-460): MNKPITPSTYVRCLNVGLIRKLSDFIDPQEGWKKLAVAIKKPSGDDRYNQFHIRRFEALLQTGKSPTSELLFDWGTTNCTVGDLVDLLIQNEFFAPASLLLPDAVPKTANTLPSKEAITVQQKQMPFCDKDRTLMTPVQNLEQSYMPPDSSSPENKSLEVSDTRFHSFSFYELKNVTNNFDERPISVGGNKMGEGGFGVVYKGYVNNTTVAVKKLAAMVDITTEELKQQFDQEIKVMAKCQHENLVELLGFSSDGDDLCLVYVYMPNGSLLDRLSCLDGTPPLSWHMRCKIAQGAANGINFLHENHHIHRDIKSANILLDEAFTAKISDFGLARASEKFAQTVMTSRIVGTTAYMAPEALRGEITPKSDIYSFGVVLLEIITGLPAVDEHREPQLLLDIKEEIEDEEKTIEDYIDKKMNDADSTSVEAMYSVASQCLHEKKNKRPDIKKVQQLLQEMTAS
Method: For the routine compound screening, an IRAK4 kinase assay was performed as follows using Promega ADP-Glo IRAK4 Kinase Enzyme System (Promega, Cat #2198-AD). Purified full length human IRAK4 protein (Signal Chem; Cat #I12-10G-125) was diluted to a concentration 6 nM in assay buffer (25 mM MOPS, pH 7.2, 12.5 mM β-glycerol-phosphate, 25 mM MgCl2, 5 mM EGTA, 2 mM EDTA, 0.0025% Brij-35, add 0.25 mM DTT to Kinase Assay Buffer prior to use) containing IRAK4 inhibitor at 2× the final concentration in 0.4% DMSO. The reaction was performed in PerkinElmer Proxiplate-384 plus white plate (Fisher Scientific, Cat #50-905-2761) and started by the addition of an equal volume of the assay buffer containing 4 μM native swine myelin basic protein (MBP) and 500 μM ATP to achieve a final concentration of 3 nM enzyme, 2 μM MBP, 250 μM ATP, 1× compound, and 0.2% DMSO. The kinase reaction was allowed to run for 60 min at room temperature (25-27° C.), then 5 μL of ADP-Glo was added to the reaction in each well followed by 40 minutes-incubation at RT. To detect converted […], 10 μL Detection Buffer was added into each well and Incubate at RT in dark for 30 minutes. Finally, luminescence was read using Tecan with 1000 ms of integration time. The luminescent signal positively correlates with ADP amount and kinase activity. Data was analyzed by GraphPad Prism and IC50 was calculated using function log(inhibitor) vs. response—Variable slope (four parameters). Percentage of inhibition was calculated as below:
(§1) % inhibition=(1−(Reading(Sample)−Reading(Negative Control))/(Reading(Positive Control)−Reading(Negative Control)))×100%
The 0% inhibition value comes from the Reading of Positive Control wells having 0 nM compound. The 100% inhibition value comes from the Reading of Negative Control wells having no IRAK4 kinase.

[3] = target: T3, IRAK4 (Homo sapiens, UniProt Q9NWZ3); experiment: IRAK4 Human PBMC TNFα Cell Based Assay (AlphaLISA); conditions: TNFα measured
T3 construct: host or cells: human peripheral blood mononuclear cells (PBMCs)
T3 sequence (Q9NWZ3 1-460): T2 sequence (Q9NWZ3 1-460)
Method: In this assay, serially diluted compounds were incubated with 1×10^4 human peripheral blood mononuclear cells (PBMCs) from STEMCELL (Cat #70025.1) per well of 384-well plate (Fisher Scientific; 50-905-2761) and cultured with TexMACS medium (Miltenyi, Cat #130-097-196), stimulated by R848 (0.5 μM) or IL-1β (10 ng/ml). Plates were covered with lids and incubated for 4 h (R848, Fisher Scientific, Cat #NC9801605) or 24 h (IL-1β, Fisher Scientific, Cat #ENRIL1BI) at 37° C. in a humidified tissue-culture incubator. After a brief centrifugation at 1000 rpm for 5 minutes, 5 μl of culture medium was used for the measurement of the TNFα amount using TNFα (human) AlphaLISA Detection Kit (PerkinElmer, Cat #AL208C) according to manufacturer's protocol. A biotinylated anti-TNFα antibody binds to the Streptavidin-coated Donor beads while another anti-TNFα antibody is conjugated to AlphaLISA Acceptor beads. In the presence of the TNFα, the beads come into close proximity. The excitation of the Donor beads causes the release of singlet oxygen molecules that triggers a cascade of energy transfer in the Acceptor beads, resulting in a sharp peak of light emission at 615 nm. AlphaLISA assay plates were read using PHERAstar. Percentage of inhibition was calculated as below:
as §1
The 0% inhibition value comes from the Reading of Positive Control wells having 0 nM compound. The 100% inhibition value comes from the Reading of Negative Control wells having no R848 or IL-1β.

[4] = human PBMCs stimulated by IL-1β (10 ng/ml), 24 h, read-out: IRAK4 PBMC AlphaLISA IL-1β (IC50)
[5] = human PBMCs stimulated by R848 (0.5 μM), 4 h, read-out: IRAK4 PBMC AlphaLISA R848 (IC50)

T1 sequence (P10635 whole entry): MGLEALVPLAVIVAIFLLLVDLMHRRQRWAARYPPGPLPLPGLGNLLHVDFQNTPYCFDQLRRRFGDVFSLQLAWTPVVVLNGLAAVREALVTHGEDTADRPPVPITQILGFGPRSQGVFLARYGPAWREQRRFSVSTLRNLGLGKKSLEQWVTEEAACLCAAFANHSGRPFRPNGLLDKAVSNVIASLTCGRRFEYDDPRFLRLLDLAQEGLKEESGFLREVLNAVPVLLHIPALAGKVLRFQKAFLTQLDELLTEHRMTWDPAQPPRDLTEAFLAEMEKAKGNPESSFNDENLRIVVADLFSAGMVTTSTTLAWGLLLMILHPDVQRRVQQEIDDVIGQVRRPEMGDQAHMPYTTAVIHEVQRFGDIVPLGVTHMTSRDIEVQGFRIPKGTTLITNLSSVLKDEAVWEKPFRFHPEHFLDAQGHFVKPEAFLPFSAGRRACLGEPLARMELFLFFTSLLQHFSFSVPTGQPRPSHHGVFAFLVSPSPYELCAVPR

Structure (SMILES) | IC50 [1] | IC50 [2] | IRAK4 Biochemical Assay Max Inhibition (%) [2] | IC50 [3, 4] | IC50 [3, 5]
CC[C@@H]1[C@H](F)C(=O)N[C@@H]1COc1ncc(C#CCOC)c2cc(C(N)=O)c(OC)cc12 [Example 6, 1-(((2S,3S,4S)-3-ethyl-4-fluoro-5-oxopyrrolidin-2-yl)methoxy)-7-methoxy-4-(3-methoxyprop-1-yn-1-yl)isoquinoline-6-carboxamide] | 13700 nM | 14.5 nM | 100.0% | 1.3 nM | 1 nM
CC[C@@H]1[C@H](F)C(=O)N[C@@H]1COc1ncc(C#CCN(C)C)c2cc(C(N)=O)c(OC)cc12 [Example 5, 4-(3-(dimethylamino)prop-1-yn-1-yl)-1-(((2S,3S,4S)-3-ethyl-4-fluoro-5-oxopyrrolidin-2-yl)methoxy)-7-methoxyisoquinoline-6-carboxamide] | > 30000 nM | 6.2 nM | 100.0% | 2.2 nM | 0.7 nM

Source: US20220177446A1, “ALKYNE COMPOUNDS AS IRAK INHIBITORS, PREPARATION METHODS AND MEDICINAL USES THEREOF” (Eternity Bioscience Inc., priority 2020, published 2022)
